In article PMC11370232, “Repurposing of a library for high-content screening of inhibitors against Echinococcus granulosus” (Parasites & Vectors, 2024):
In brackets after ≈: the same amount, converted by molar mass. Where a name gives a salt, the structure may show the parent alone. Read-outs that look alike come from different tables or passages of the source.

Columns and labels:
[1] = system: lab-cultured E. granulosus cysts (> 1 mm); assay: In vitro cyst viability assay; type: cell-based, Echinococcus granulosus; settings: for inhibition at 10 µM: Echinococcus granulosus, 72 h, read-out: inhibitory rate against the cysts
HepG2 [2] = assay: Cytotoxicity in HepG2; settings: read-out: Cytotoxicity in HepG2, CC50; HepG2
[3] = system: lab-cultured E. granulosus microcysts (< 1 mm); assay: In vitro microcyst viability assay; type: cell-based, Echinococcus granulosus; settings: 10 μM, 4 days
Experimental: The in vitro E. granulosus culture progression was divided into two stages: an early stage in which the PSC culture was established by digesting echinococcal cysts isolated from naturally infected sheep livers, followed by a late stage with differentiation into cysts. CSCs were cultured from PSCs according to our previously described method. Briefly, the PSCs were incubated at 37 °C in glass culture vessels in RPMI 1640 medium (Invitrogen, San Diego, CA) containing 20% (v/v) FCS (Invitrogen), 0.45% (w/v) yeast extract, 0.4% (w/v) glucose, 100 IU/mL penicillin, and 100 μg/mL streptomycin placed on a solid-phase base prepared by heating newborn calf serum at 75 °C for 45 min (Smyth, 1990). Approximately 100 PSCs/mL were cultured, and the liquid medium was replaced every 3 days. After 56 days of cultivation, about 10% of the PSCs had developed into cysts with a thin laminated layer. The external diameter of the cysts was 328.6 ± 48 μm, and they appeared to the naked eye as clear capsular cysts. The cysts were carefully aspirated from the culture flasks and separated from dead or undeveloped PSCs by Pasteur pipetting. CSCs included microcysts and cysts: the diameter of the microcysts ranged from 300 μm to 1 mm, and the diameters of the cysts were greater than 1 mm.
CSCs were cultured from PSCs utilizing the method described in a previous section. The in vitro cultured cysts (10 ± 5/well) or microcysts (10 ± 5/well) were seeded in 96-well plates before adding drugs. For the cyst/microcyst viability assay, cysts or microcysts were cultured in one well of a 96-well plate. After 1 day of culture, drugs were added to each well at a final concentration of 10 μM. For the cyst viability assay, the cyst survival rate was determined every 24 h after incubation with drugs, while for the microcyst viability assay, the survival rate of microcysts was determined at 4 days after drug incubation. The following equation was used for the death rate: death rate of CSCs (%) = 100 × (number of dead CSCs/number of total CSCs).

PI3Kα = system: PI3Kα; parameters: method as in SelleckChem library description; settings: ref SelleckChem library description; cited from earlier work
PI3Kγ = system: PI3Kγ; parameters: method as in SelleckChem library description; settings: ref SelleckChem library description; cited from earlier work
PI3Kβ = system: PI3Kβ; parameters: method as in SelleckChem library description; settings: ref SelleckChem library description; cited from earlier work
[4] = system: alpha- and beta-coronaviruses; settings: cited from earlier work
N. fowleri = system: N. fowleri; parameters: method as in earlier work; settings: cited from earlier work
in vitro = settings: human
Chk1 = system: Chk1; parameters: method as in SelleckChem library description; settings: ref SelleckChem library description, cited from earlier work
EGFR = system: EGFR; parameters: method as in SelleckChem library description; settings: ref SelleckChem library description; cited from earlier work
20S proteasome = system: 20S proteasome; parameters: method as in SelleckChem library description; settings: ref SelleckChem library description; read-out: IC50, chymotrypsin-like activity of purified 20S proteasome; cited from earlier work
ALK = system: ALK; parameters: method as in SelleckChem library description; settings: ref SelleckChem library description, cited from earlier work
Cytotoxicity in HepG2 = settings: human
p97 = system: p97; parameters: method as in SelleckChem library description; settings: ref SelleckChem library description; cited from earlier work
[5] = molecular target: opioid receptor-like1 (ORL1) receptor; parameters: method as in SelleckChem library description; settings: ref SelleckChem library description; cited from earlier work
[6] = system: E. multilocularis metacestodes; parameters: method as in PMID 32636148; settings: screening cascade; cited from earlier work
[7] = system: E. multilocularis metacestode burden; parameters: method as in PMID 32636148; settings: oral treatment, mice infected intraperitoneally with metacestodes or orally with eggs, compared with albendazole; cited from earlier work
[8] = system: E. multilocularis and E. granulosus s.s. PSCs, metacestode vesicles, and germinal layer cells; parameters: method as in PMID 37540716; settings: cited from earlier work
[9] = system: E. multilocularis metacestodes; parameters: method as in PMID 30396011; settings: cited from earlier work
HepG2 [10] = system: HepG2
[11] = system: E. granulosus cysts collected from mice infected with microcysts; assay: Ex vivo cyst viability assay; type: cell-based, Echinococcus granulosus; settings: for metacestodicidal effect on cysts ex vivo: 1 to 20 μM, 7 days
Experimental: BALB/c mice were inoculated with cultured microcysts following the methodology outlined in a previous study; 10 weeks post-infection, the mice were euthanized, and cysts were harvested from the peritoneal cavity. The cysts were categorized as size-small cysts, with a diameter less than 5 mm and without PSCs, or large cysts, with a diameter greater than 5 mm and with PSCs. Subsequently, the cysts were incubated in bottles with RPMI 1640 culture medium enriched with 10% FCS and antibiotics.
To determine the effect of omaveloxolone (HY-12212, MCE) and niclosamide (HY-B0497, MCE) on isolated cyst viability ex vivo, cysts collected from the peritoneal cavity of infected mice were incubated with different concentrations of drugs (1, 5, and 20 μM) for 7 days. The mortality rate of the cysts was recorded each day according to the following equation: death rate of cyst/microcyst (%) = [number of dead (cysts and microcysts)/number of total (cysts and microcysts)].

PTEN = system: PTEN; parameters: method as in SelleckChem library description; settings: ref SelleckChem library description; cited from earlier work
CE = system: CE; parameters: method as in PMID 15708321, PMID 11776080; settings: retrospective study; cited from earlier work
echinococcal cysts = system: echinococcal cysts; parameters: method as in PMID 32279056; settings: three-dose intraperitoneal regimen, 57 mg/kg once a day for 3 days; cited from earlier work
[12] = system: Trypanosoma brucei brucei GUTat 3.1; parameters: method as in SelleckChem library description; settings: ref SelleckChem library description; cited from earlier work
[13] = system: Plasmodium falciparum K1a; parameters: method as in SelleckChem library description; settings: ref SelleckChem library description; cited from earlier work
MALT1 = system: MALT1; parameters: method as in SelleckChem library description; settings: ref SelleckChem library description; cited from earlier work

With `CC(=O)OC[C@H]1O[C@@H]([S-])[C@H](OC(C)=O)[C@@H](OC(C)=O)[C@@H]1OC(C)=O.CCP(CC)CC.[Au+]` [Auranofin] the “inhibitory rate against the cysts” value ([1]; 10 μM, day 3 post-treatment) was 100%, the CC50 (HepG2 [2]) was 13400 nM and the “effect on microcyst viability” value [3] was “did not exert a significant inhibitory effect”.
In the case of `COc1ccc(-c2ccc3ncc4c(c3c2)n(-c2ccc(N3CCNCC3)c(C(F)(F)F)c2)c(=O)n4C)cn1` [BGT226 (NVP-BGT226), BGT226], the IC50 (PI3Kα) is listed as 4 nM, the IC50 (PI3Kγ) is listed as 38 nM and the IC50 (PI3Kβ) is listed as 63 nM.
For `COC(=O)[C@]12CCC(C)(C)C[C@H]1[C@H]1C(=O)C=C3[C@@]4(C)C=C(C#N)C(=O)C(C)(C)[C@@H]4CC[C@@]3(C)[C@]1(C)CC2` [Bardoxolone methyl], the coronavirus inhibition [4] is listed as “inhibitors of both alpha- and beta-coronaviruses”, the inhibition at 10 µM ([1]; 10 μM, day 3 post-treatment) is listed as 100% and the “inhibition of N. fowleri growth” value (N. fowleri; 24 h) is listed as “approximately 85%”. For the same molecule, the “inhibition of N. fowleri growth” value (N. fowleri; 48 h) was 97% and the CC50 (in vitro) was 8130 nM.
In the case of `CC#CC(=O)Nc1ccc2ncnc(Nc3cccc(Br)c3)c2c1` [CL-387785 (EKI-785), CL-387785], the IC50 (EGFR) is listed as 0.37 nM.
In the case of `CC1=C(O)C(=O)C=C2C1=CC=C1[C@@]2(C)CC[C@@]2(C)[C@@H]3C[C@](C)(C(=O)O)CC[C@]3(C)CC[C@]12C` [Celastrol], the IC50 (20S proteasome) is listed as 2500 nM.
For `COc1ccc2c(c[n+](C)c3c4cc5c(cc4ccc23)OCO5)c1OC` [Chelerythrine], the inhibition at 10 µM ([1]; 10 μM, day 3 post-treatment) was 100%, the CC50 (Cytotoxicity in HepG2) was 32700 nM and the “effect on microcyst viability” value [3] was “did not exert a significant inhibitory effect”.
In the case of `c1ccc(CNc2nc(NCc3ccccc3)c3ccccc3n2)cc1` [DBeQ], the IC50 (p97) is given as 1500 nM.
With `CCC[C@H](NC(=O)/C(C#N)=C/c1cccc(Br)n1)c1ccccc1` [Degrasyn (WP1130), Degrasyn] the “cyst morphology after treatment” value ([1]; day 3 post-drug treatment, positive control) was “structural damage of the cyst”.
In the case of `CCCCc1oc2ccc(NS(C)(=O)=O)cc2c1C(=O)c1ccc(OCCCN(CCCC)CCCC)cc1` [Dronedarone HCl], the inhibition at 10 µM ([1]; 10 μM, day 3 post-treatment) is reported as 100%, the CC50 (Cytotoxicity in HepG2; HepG2 cells) is reported as 15500 nM and the “effect on microcyst viability” value [3] is reported as “did not exert a significant inhibitory effect”.
In the case of `CCc1ccc(OCc2ccccc2C(=O)Nc2ccc3nc(C)cc(N)c3c2)cc1` [JTC-801], the inhibition at 10 µM ([1]; 10 μM, day 3 post-treatment) is listed as 100%, the CC50 (Cytotoxicity in HepG2; HepG2 cells) is listed as 7430 nM and the IC50 [5] is listed as 94 nM. The “effect on microcyst viability” value [3] was “did not exert a significant inhibitory effect”.
For `O=C(Nc1cccc(C(F)(F)F)c1)c1cc(Cl)ccc1O` [MMV665807], the “activity against E. multilocularis metacestodes in vitro” value (“activity … in vitro” below) [6] is given as “active”, the “effect on metacestode burden” value [7] is given as “did not lead to a reduction of the metacestode burden” and the “activity against the parasites of both species in all four assays” value [8] is given as “active”.
In the case of `Cc1[nH]c2cc(F)cc(F)c2c(=O)c1-c1ccc(Oc2ccc(OC(F)(F)F)cc2)cc1` [MMV671636, ELQ-400], the “MIC50 against E. multilocularis metacestodes cultured in vitro” value [9] is listed as 0.02 µM (≈ 0.00895 µg/mL).
In the case of `CC(C)(C)[C@H]1CC[C@H](CC2=C(O)C(=O)c3ccccc3C2=O)CC1` [MMV689480, buparvaquone], the “MIC50 against E. multilocularis metacestodes cultured in vitro” value [9] is listed as 2.87 µM (≈ 0.937 µg/mL).
Work on `CC(C)(Cc1ccc2ccccc2c1)NC[C@@H](O)COc1cccc(Cl)c1C#N` [NPS-2143] yielded a CC50 (HepG2 [10]) of 15300 nM.
With `O=C(Nc1ccc([N+](=O)[O-])cc1Cl)c1cc(Cl)ccc1O` [Niclosamide] the “day on which all cysts were killed (complete lethality)” value [11] was 7 days, the “metacestodicidal effect on cysts ex vivo” value [11] was “obvious metacestodicidal effect” and the parasiticidal efficiency ([11]; low incubation concentration, from day 5, ex vivo) was “approximately 80%”. The inhibition at 10 µM ([1]; 10 μM, day 3 post-treatment) was 100%, the “activity … in vitro” value [6] was “active” and the “effect on metacestode burden” value [7] was “did not lead to a reduction of the metacestode burden”. The CC50 (in vitro) was 6140 nM, the “activity against the parasites of both species in all four assays” value [8] was “active” and the “effect on microcyst viability” value [3] was “complete lethality”.
For `CC1(C)CC[C@]2(NC(=O)C(C)(F)F)CC[C@]3(C)[C@H](C(=O)C=C4[C@@]5(C)C=C(C#N)C(=O)C(C)(C)[C@@H]5CC[C@]43C)[C@@H]2C1` [Omaveloxolone], the “day on which all cysts were killed (complete lethality)” value [11] was no more than 5 days, the “reduction in cyst viability” value ([11]; 5 μM, by day 2, ex vivo) was 50% and the “metacestodicidal effect on cysts ex vivo” value [11] was “obvious metacestodicidal effect”. For the same molecule, the coronavirus inhibition [4] was “inhibitors of both alpha- and beta-coronaviruses”, the inhibition at 10 µM [1] was 100% and the CC50 (Cytotoxicity in HepG2; HepG2 cells) was 9330 nM. For the same molecule, the “effect on microcyst viability” value [3] was “complete lethality”.
`OC1(c2ccc(Cl)c(C(F)(F)F)c2)CCN(CCCC(c2ccc(F)cc2)c2ccc(F)cc2)CC1` [Penfluridol] gave a CC50 (Cytotoxicity in HepG2; HepG2 cells) of 8630 nM.
For `CC(C)(C)C(=O)Nc1ccc2c(c1)C(=O)C(=O)c1ccccc1-2` [SF1670], the IC50 (PTEN) is listed as 2000 nM.
Molecule `CC(C)(C)c1ccc(C(O)CCCN2CCC(C(O)(c3ccccc3)c3ccccc3)CC2)cc1` (centres unmarked) [Terfenadine] has a CC50 (in vitro) of 7310 nM.
`CC(=O)Oc1cc(C)c(OC(C)=O)c2ccccc12` [Vitamin K4] showed a CC50 (Cytotoxicity in HepG2; HepG2 cells) greater than 100000 nM.
For `CCCSc1ccc2nc(NC(=O)OC)[nH]c2c1` [albendazole], the “patients who did not respond favorably to the medication” value (CE) is given as “about 40%”.
For `OC(c1cc(C(F)(F)F)nc2c(C(F)(F)F)cccc12)C1CCCCN1` (centres unmarked) [mefloquine], the “activity … in vitro” value [6] is listed as “active”.
In the case of `COc1ccc2nc3cc(Cl)ccc3c(Nc3cc(CN4CCCC4)c(O)c(CN4CCCC4)c3)c2n1` [pyronaridine], the cyst mortality (echinococcal cysts) is listed as 100%.
In the case of Elaiophylin, the IC50 [12] is given as 450 nM and the IC50 [13] is given as 360 nM.
For MI-2 [MI-2 (MALT1 inhibitor)], the IC50 (MALT1) is given as 5840 nM.
